Twelve compounds from patent US20260070945A1, “MACROCYCLIC IMMUNOMODULATORS” (Bristol-Myers Squibb Company, priority 2022, published 2026) can be followed below.

Molecules are shown by their SMILES. *1 amine or outer side, *2 acyl side, *3 side chain or, on linkers, in order; H or OH if unused. Where a SMILES comes first, the peptide text is derived from it. Bridges are numbered along the chain shown (N, C = ends). [ ]: non-standard residue; d: D form. The star is where a group is joined. ξ: configuration not given here. Trp(1-Me) = Cn1cc(C[C@H](N)C(=O)O)c2ccccc21; Bip = N[C@@H](Cc1ccc(-c2ccccc2)cc1)C(=O)O; Phe(3-Me) = Cc1cccc(C[C@H](N)C(=O)O)c1; γGlu = O=C(O)[C@H](CCC(=O)[*:2])N[*:1]; NMeAEEA = CN(CCOCCOCC(=O)[*:2])[*:1]; 4Pal = N[C@@H](Cc1ccncc1)C(=O)O; Cha = N[C@@H](CC1CCCCC1)C(=O)O; Cit = NC(=O)NCCC[C@H](N)C(=O)O; Ile(3ξ) = CCC(C)[C@H](N)C(=O)O; Thr(3ξ) = CC(O)[C@H](N)C(=O)O; 12Ado = NCCCCCCCCCCCC(=O)O; hSer = N[C@@H](CCO)C(=O)O; Carboxymethyl = O=C(O)C*; NMeA = CN[C@@H](C)C(=O)O; Orn = NCCC[C@H](N)C(=O)O; Aun = NCCCCCCCCCCC(=O)O; Dab = NCC[C@H](N)C(=O)O; Dap = NC[C@H](N)C(=O)O; AEEA = NCCOCCOCC(=O)O

The experiment deals with T1, PD-1/PD-L1 interaction (PE-labeled human PD-L1-Ig binding to Jurkat cell line over-expressing human PD-1) (Homo sapiens, UniProt Q15116).
T1 construct: expressed in transfected cells; host or cells: Jurkat
T1 sequence (Q15116 25-288): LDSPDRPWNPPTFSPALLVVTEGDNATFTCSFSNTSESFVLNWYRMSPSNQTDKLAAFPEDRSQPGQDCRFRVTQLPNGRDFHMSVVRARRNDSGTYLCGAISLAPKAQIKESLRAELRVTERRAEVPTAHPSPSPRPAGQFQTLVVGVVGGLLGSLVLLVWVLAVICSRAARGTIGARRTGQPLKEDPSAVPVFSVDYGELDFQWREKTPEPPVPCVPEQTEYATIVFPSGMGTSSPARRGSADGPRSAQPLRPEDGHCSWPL
Briefly: Jurkat-PD-1 Cell Binding High-Content Screening Assay (CBA). Particulars: Jurkat-hPD-1 cells, PE-labeled PD-L1-Ig 20 nM final; read-out: Jurkat HPD1 PDL1 IC50. The essentials: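 High-content imaging read-out of PE-PD-L1-Ig binding (20 nM final, 1 h) to Jurkat-hPD-1 cells, after 2 h compound exposure at 37 °C in DMEM with 10% FCS. Nuclei counterstained with Hoechst 33342 after paraformaldehyde fixation.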
Turning to `CC(=O)NCCCC[C@@H]1NC(=O)[C@H](CC2CCCCC2)NC(=O)[C@H](CCN)NC(=O)[C@@H](CC(C)C)NC(=O)[C@H](C)N(C)C(=O)[C@H](CCCNC(N)=O)NC(=O)[C@H](Cc2ccc(-c3ccccc3)cc2)NC(=O)[C@H](Cc2ccc(O)cc2)NC(=O)[C@H](Cc2cccc(C)c2)NC(=O)[C@H](CC(=O)O)NC(=O)[C@H](Cc2ccc(OCC(=O)O)cc2)NC(=O)[C@H](Cc2ccncc2)NC(=O)CSC[C@@H](C(=O)N[C@@H](CCCN)C(=O)N[C@@H](CO)C(=O)NCCCCCCCCCCCC(=O)O)NC(=O)[C@H](C(C)O)NC1=O` (stereo partly drawn) [Example 2411] ({CH2CO}-[4Pal]Y(Carboxymethyl)D[Phe(3-Me)]Y[Bip][Cit][NMeA][dL][Dab][Cha]K(Ac)[Thr(3ξ)]C[Orn]S[12Ado]-OH; thioether N-14), the IC50 was determined as 38.1 nM.
Turning to `Cc1cccc(C[C@@H]2NC(=O)[C@H](CC(=O)O)NC(=O)[C@H](Cc3ccc(OCC(=O)O)cc3)NC(=O)[C@H](C(C)O)NC(=O)CSC[C@@H](C(=O)N[C@@H](CCCN)C(=O)N[C@@H](CO)C(=O)NCCCCCCCCCCCC(=O)O)NC(=O)[C@H](C(C)O)NC(=O)[C@H](C(C)C)NC(=O)[C@H](CC3CCCCC3)NC(=O)[C@H](CCN)NC(=O)[C@@H](CC(C)C)NC(=O)[C@H](C)N(C)C(=O)[C@H](CCCNC(N)=O)NC(=O)[C@H](Cc3ccc(-c4ccccc4)cc3)NC(=O)[C@H](C(C)C)NC2=O)c1` (stereo partly drawn) [Example 2412] ({CH2CO}-[Thr(3ξ)]Y(Carboxymethyl)D[Phe(3-Me)]V[Bip][Cit][NMeA][dL][Dab][Cha]V[Thr(3ξ)]C[Orn]S[12Ado]-OH; thioether N-14), the IC50 was determined as 12.9 nM.
With `Cc1cccc(C[C@@H]2NC(=O)[C@H](CC(=O)O)NC(=O)[C@H](Cc3ccc(OCC(=O)O)cc3)NC(=O)[C@H](CN)NC(=O)CSC[C@@H](C(=O)N[C@@H](CCCN)C(=O)N[C@@H](CO)C(=O)NCCCCCCCCCCCC(=O)O)NC(=O)[C@H](C(C)O)NC(=O)[C@H](C(C)C)NC(=O)[C@H](CC3CCCCC3)NC(=O)[C@H](CCN)NC(=O)[C@@H](CC(C)C)NC(=O)[C@H](C)N(C)C(=O)[C@H](CCCNC(N)=O)NC(=O)[C@H](Cc3ccc(-c4ccccc4)cc3)NC(=O)[C@H](C(C)C)NC2=O)c1` (stereo partly drawn) [Example 2413] ({CH2CO}-[Dap]Y(Carboxymethyl)D[Phe(3-Me)]V[Bip][Cit][NMeA][dL][Dab][Cha]V[Thr(3ξ)]C[Orn]S[12Ado]-OH; thioether N-14) the figure was 16.5 nM; with `Cc1cccc(C[C@@H]2NC(=O)[C@H](CC(=O)O)NC(=O)[C@H](Cc3ccc(OCC(=O)O)cc3)NC(=O)[C@H](CN)NC(=O)CSC[C@@H](C(=O)N(C)CCOCCOCC(=O)NCCCCCCCCCCC(=O)O)NC(=O)[C@H](CCCN)NC(=O)[C@H](C(C)C)NC(=O)[C@H](CC3CCCCC3)NC(=O)[C@H](CCN)NC(=O)[C@@H](CC(C)C)NC(=O)[C@H](C)N(C)C(=O)[C@H](C(C)C)NC(=O)[C@H](Cc3ccc(-c4ccccc4)cc3)NC(=O)[C@H](C(C)C)NC2=O)c1` [Example 2414] ({CH2CO}-[Dap]Y(Carboxymethyl)D[Phe(3-Me)]V[Bip]V[NMeA][dL][Dab][Cha]V[Orn]C[NMeAEEA][Aun]-OH; thioether N-14), 45 nM.
For the compound `CC(=O)NCCCC[C@@H]1NC(=O)[C@H](Cc2ccc(-c3ccccc3)cc2)NC(=O)[C@H](C(C)C)NC(=O)[C@H](Cc2cccc(C)c2)NC(=O)[C@H](CC(=O)O)NC(=O)[C@H](Cc2ccc(OCC(=O)O)cc2)NC(=O)[C@H](CN)NC(=O)CSC[C@@H](C(=O)N(C)CCOCCOCC(=O)NCCCCCCCCCCC(=O)O)NC(=O)[C@H](CCCN)NC(=O)[C@H](C(C)C)NC(=O)[C@H](CC2CCCCC2)NC(=O)[C@H](CCN)NC(=O)[C@@H](CC(C)C)NC(=O)[C@H](C)N(C)C1=O` [Example 2415] ({CH2CO}-[Dap]Y(Carboxymethyl)D[Phe(3-Me)]V[Bip]K(Ac)[NMeA][dL][Dab][Cha]V[Orn]C[NMeAEEA][Aun]-OH; thioether N-14), the IC50 is 41.2 nM.
In the case of `CCC(C)[C@@H]1NC(=O)[C@H](Cc2ccc(-c3ccccc3)cc2)NC(=O)[C@H](C(C)C)NC(=O)[C@H](Cc2cn(C)c3ccccc23)NC(=O)[C@H](CC(=O)O)NC(=O)[C@H](Cc2ccc(OCC(=O)O)cc2)NC(=O)[C@H](C(C)O)NC(=O)CSC[C@@H](C(=O)N[C@@H](CCCN)C(=O)NCCCCCCCCCCC(=O)O)NC(=O)[C@H](C(C)O)NC(=O)[C@H](C(C)C)NC(=O)[C@H](CC2CCCCC2)NC(=O)[C@H](CCN)NC(=O)[C@@H](CC(C)C)NC(=O)[C@H](C)N(C)C1=O` (stereo partly drawn) [Example 2416] ({CH2CO}-[Thr(3ξ)]Y(Carboxymethyl)D[Trp(1-Me)]V[Bip][Ile(3ξ)][NMeA][dL][Dab][Cha]V[Thr(3ξ)]C[Orn][Aun]-OH; thioether N-14) it was 570 nM; in that of `CCC(C)[C@@H]1NC(=O)[C@H](Cc2ccc(-c3ccccc3)cc2)NC(=O)[C@H](C(C)C)NC(=O)[C@H](Cc2c[nH]c3ccccc23)NC(=O)[C@H](CC(=O)O)NC(=O)[C@H](Cc2ccc(OCC(=O)O)cc2)NC(=O)[C@H](C(C)O)NC(=O)CSC[C@@H](C(=O)N[C@@H](CCCN)C(=O)N[C@@H](CCC(=O)NCCCCCCCCCCCC(=O)O)C(=O)O)NC(=O)[C@H](C(C)O)NC(=O)[C@H](C(C)C)NC(=O)[C@H](CC2CCCCC2)NC(=O)[C@H](CCN)NC(=O)[C@@H](CC(C)C)NC(=O)[C@H](C)N(C)C1=O` (stereo partly drawn) [Example 2417] ({CH2CO}-[Thr(3ξ)]Y(Carboxymethyl)DWV[Bip][Ile(3ξ)][NMeA][dL][Dab][Cha]V[Thr(3ξ)]C[Orn][γGlu][12Ado]-OH; thioether N-14), 32.3 nM; in that of `CCC(C)[C@@H]1NC(=O)[C@H](Cc2ccc(-c3ccccc3)cc2)NC(=O)[C@H](C(C)C)NC(=O)[C@H](Cc2c[nH]c3ccccc23)NC(=O)[C@H](CC(=O)O)NC(=O)[C@H](Cc2ccc(OCC(=O)O)cc2)NC(=O)[C@H](C(C)O)NC(=O)CSC[C@@H](C(=O)N[C@@H](CCCN)C(=O)N[C@@H](CCC(=O)NCCCCCCCCCCCC(=O)O)C(=O)O)NC(=O)[C@H](C(C)O)NC(=O)[C@H](C(C)C)NC(=O)[C@H](CC2CCCCC2)NC(=O)[C@H](CCN)NC(=O)[C@@H](CC(C)C)NC(=O)[C@H](C)N(C)C1=O` (stereo partly drawn) [Example 2418] ({CH2CO}-[Thr(3ξ)]Y(Carboxymethyl)DWV[Bip][Ile(3ξ)][NMeA][dL][Dab][Cha]V[Thr(3ξ)]C[Orn][γGlu][12Ado]-OH; thioether N-14), 46.8 nM.
With `CC(=O)NCCCC[C@@H]1NC(=O)[C@H](Cc2ccc(-c3ccccc3)cc2)NC(=O)[C@H](Cc2ccc(O)cc2)NC(=O)[C@H](Cc2cccc(C)c2)NC(=O)[C@H](CC(=O)O)NC(=O)[C@H](Cc2ccc(OCC(=O)O)cc2)NC(=O)[C@H](CCN)NC(=O)CSC[C@@H](C(=O)NCCOCCOCC(=O)NCCCCCCCCCCC(=O)O)NC(=O)[C@H](C(C)O)NC(=O)[C@H](C(C)C)NC(=O)[C@H](CC2CCCCC2)NC(=O)[C@H](CCN)NC(=O)[C@@H](CC(C)C)NC(=O)[C@H](C)N(C)C1=O` (stereo partly drawn) [Example 2419] ({CH2CO}-[Dab]Y(Carboxymethyl)D[Phe(3-Me)]Y[Bip]K(Ac)[NMeA][dL][Dab][Cha]V[Thr(3ξ)]C[AEEA][Aun]-OH; thioether N-14) the figure was 52.4 nM; with `CC(=O)NCCCC[C@@H]1NC(=O)[C@H](Cc2ccc(-c3ccccc3)cc2)NC(=O)[C@H](Cc2ccc(O)cc2)NC(=O)[C@H](Cc2cccc(C)c2)NC(=O)[C@H](CC(=O)O)NC(=O)[C@H](Cc2ccc(OCC(=O)O)cc2)NC(=O)[C@H](C(C)O)NC(=O)CSC[C@@H](C(=O)NCCOCCOCC(=O)NCCCCCCCCCCC(=O)O)NC(=O)[C@H](C(C)O)NC(=O)[C@H](C(C)C)NC(=O)[C@H](CC2CCCCC2)NC(=O)[C@H](CCN)NC(=O)[C@@H](CC(C)C)NC(=O)[C@H](C)N(C)C1=O` (stereo partly drawn) [Example 2420] ({CH2CO}-[Thr(3ξ)]Y(Carboxymethyl)D[Phe(3-Me)]Y[Bip]K(Ac)[NMeA][dL][Dab][Cha]V[Thr(3ξ)]C[AEEA][Aun]-OH; thioether N-14), 35.4 nM.
With `CC(=O)NCCCC[C@@H]1NC(=O)[C@H](Cc2ccc(-c3ccccc3)cc2)NC(=O)[C@H](Cc2ccc(O)cc2)NC(=O)[C@H](Cc2cccc(C)c2)NC(=O)[C@H](CC(=O)O)NC(=O)[C@H](Cc2ccc(OCC(=O)O)cc2)NC(=O)[C@H](CCN)NC(=O)CSC[C@@H](C(=O)N[C@@H](CCN)C(=O)NCCCCCCCCCCC(=O)O)NC(=O)[C@H](C(C)O)NC(=O)[C@H](C(C)C)NC(=O)[C@H](CC2CCCCC2)NC(=O)[C@H](CCN)NC(=O)[C@@H](CC(C)C)NC(=O)[C@H](C)N(C)C1=O` (stereo partly drawn) [Example 2421] ({CH2CO}-[Dab]Y(Carboxymethyl)D[Phe(3-Me)]Y[Bip]K(Ac)[NMeA][dL][Dab][Cha]V[Thr(3ξ)]C[Dab][Aun]-OH; thioether N-14) the figure was 14.6 nM; with `CC(=O)NCCCC[C@@H]1NC(=O)[C@H](Cc2ccc(-c3ccccc3)cc2)NC(=O)[C@H](Cc2ccc(O)cc2)NC(=O)[C@H](Cc2cccc(C)c2)NC(=O)[C@H](CC(=O)O)NC(=O)[C@H](Cc2ccc(OCC(=O)O)cc2)NC(=O)[C@H](Cc2ccc(OCC(=O)O)cc2)NC(=O)CSC[C@@H](C(=O)NCCOCCOCC(=O)NCCCCCCCCCCC(=O)O)NC(=O)[C@H](CCO)NC(=O)[C@H](C(C)C)NC(=O)[C@H](CC2CCCCC2)NC(=O)[C@H](CCN)NC(=O)[C@@H](CC(C)C)NC(=O)[C@H](C)N(C)C1=O` [Example 2422] ({CH2CO}-Y(Carboxymethyl)Y(Carboxymethyl)D[Phe(3-Me)]Y[Bip]K(Ac)[NMeA][dL][Dab][Cha]V[hSer]C[AEEA][Aun]-OH; thioether N-14), 24.9 nM.

Usually IC50 stands for the concentration that inhibits the measured activity by half.
